Measurements from a melting point compilation (Tetko et al.; mined from patent text by program, amines drawn as free bases though some values may be those of a salt).

SMILES | melting point [°C]
COC(=O)C(Sc1ccc(Cl)cc1)c1ccc(Oc2ccccc2)cc1 (centres undefined) | 66 to 67.5
Cc1cccc(C2=C(c3cn(C)c4ccccc34)C(=O)NC2=O)c1 | 243
CC(=O)OC(CS(=O)(=O)CC(OC(C)=O)c1ccc(N)cc1)c1ccc(N)cc1 (centres undefined) | 92 to 93
CS(=O)(=O)Nc1ccc(NC(=O)CN2CCC(Cc3ccccc3)CC2)cc1 | 102 to 106
O=c1[nH]c2cccc(C(F)(F)F)c2c(=O)o1 | 232 to 233
COc1ccc(C)cc1NC(=O)Nc1ccc(N2CCN(C(=O)Nc3ccc(OCCO)cc3C(F)(F)F)CC2)c(C#N)c1 | 135 to 137
O=[N+]([O-])c1ccc(-n2ncnc2-c2cnccn2)cc1 | 188 to 189
CC(C)(C)NC(=O)c1nn(-c2ccc(Br)cc2)c2c1[C@@H]1CC[C@H]2C1 | 148 to 149
N#Cc1cc2sccc2nc1I | 190 to 191
COc1nc2ccc(Cl)cc2nc1Sc1nnc(C)s1 | 186 to 188
CC(=O)NC[C@H]1CN(c2ccc(C3CCN(C(=O)CO)CC3)c(F)c2)C(=O)O1 | 182 to 183
CCS(=O)(=O)c1ccc(-c2cc(-c3nc(N)sc3-c3cccc(C)n3)ccn2)cc1 | 219
COc1ccc2c(c1)NC(=O)C(CCCN1CCN(c3ccc(F)cc3)CC1)O2 (centres undefined) | 153 to 154
Nc1cc(-c2ccnc3c(C(=O)c4cccs4)cnn23)cs1 | 174 to 176
Cc1cccc(NC(C(N)=O)c2ccccc2C)c1 (centres undefined) | 90 to 91.5
COc1cc2c(cc1-n1cccc1)C(Nc1ccc(F)c(Cl)c1)=C(C#N)CN2 | 192 to 194
O=C1C(Nc2ccccc2)=CC(=O)c2ncccc21 | 182 to 184
CC(=O)n1cc(C#N)c(-c2cccc(Cl)c2F)c1 | 141 to 142
O=C(NC(Cc1ccc(-c2cccc3ccccc23)cc1)C(=O)O)C(CS)Cc1ccccc1 (centres undefined) | 158
Cc1cc(OC(=O)c2ccc(Cl)c(OCCn3cnnn3)c2Cl)n(C)n1 | 138 to 140
COc1cc2ccccc2cc1N(C)C(=O)N1CCN(c2cc(F)cc(F)c2)CC1 | 115 to 117
CS(=O)(=O)OC1CN(C(c2ccccc2)c2ccccc2)C1 | 85 to 87
CS(=O)(=O)c1csc(C(=O)C2C(=O)N(C(N)=O)c3ccc(Cl)cc32)c1 (centres undefined) | 228 to 230

SMILES | melting point [°C]
Cc1noc2cc(F)c(-n3c(=O)cc(C(F)(F)F)[nH]c3=O)cc12 | 235 to 237
CC(C)(C)C(=O)N[C@H]1CC[C@H](CCN2CCN(c3nccc4c3CCO4)CC2)CC1 | 185
O=C1N(Cc2nc3ncccc3o2)c2ccccc2C12COc1cc3c(cc12)OCO3 (centres undefined) | 202 to 204
COc1ccc(S(=O)(=O)Nc2ccc(Cl)c(OCCN(C)C)c2)cc1OC | 103 to 106
CCN(CC)C(=O)c1cc(-c2ccc(OC)cc2)ccc1OC | 58 to 60
CCc1nc2c(C)c(N)c(C)nc2[nH]1 | 153 to 155
CCc1ccc(OCCCCCCN2CCN(c3nccs3)CC2)cc1 | 21 to 23
CN1CCN(c2nc3sc4c(NCc5cccnc5)ncnc4c3c3c2COC(C)(C)C3)CC1 | 251 to 252
CC(C)Oc1ccc2c(O)c(C(=O)NCCO)nc(Cl)c2c1 | 102 to 104
CCOC(=O)c1sc(-c2ccc(C#N)cc2)nc1CO | > 250
CCS(=O)(=O)N1C[C@H](C)N(C(=O)[C@@](C)(O)C(F)(F)F)C[C@H]1C | 142 to 144
COCCOc1ccc(-c2sc(N3C(=O)c4ccccc4C3=O)c(C(=O)c3ccc(Cl)cc3)c2CBr)cc1 | 142 to 145
C=CS(=O)(=O)Nc1c(C)cc([N+](=O)[O-])cc1C | 132
CCCc1c(O)ccc(C(=O)c2ccccc2O)c1O | 110 to 113
Cc1cc(C)n(C(=O)C2c3ccccc3Oc3ccccc32)n1 | 114 to 115
Cc1cc(C)nc(Oc2cccc(Oc3ncc(Cl)cn3)c2)n1 | 142
CCC(Cc1cccc(F)c1)n1nnc2cc3c(cc2c1=O)OC1CCCN1C3=O (centres undefined) | 117 to 119
COc1ccc(C[C@H](C[C@H](O)[C@H](Cc2ccccc2)NC(=O)OC(C)(C)C)C(=O)O)c(OC)c1 | 144 to 145
Clc1nc(SCc2cccc3ccccc23)nc2c1CCN2 | 107 to 110
Cc1cc(C2=NOC(c3cc(Cl)cc(Cl)c3)(C(F)(F)F)C2)ccc1C(=O)NC1CCCO1 (centres undefined) | 144 to 147
COC1=CC2=CCC3C(=CCC4(C)C(=O)CCC34)C2(C)CC1 (centres undefined) | 153
CS(=O)c1nc(-c2ccccc2)cs1 (centres undefined) | 104 to 105
CCc1nc(C)cn1S(=O)(=O)c1c[nH]cn1 | 147 to 148

SMILES | melting point [°C]
N#Cc1ccc2oc(-c3ccc(O)cc3)cc(=O)c2c1 | 296 to 298
FC(F)(F)c1ccc2c(c1)ncn2-c1cccc(-n2ccnc2)c1 | 177 to 180
CC1CCCN(c2cc(F)cc(C(=O)Nc3ccc(OCCN4CCOCC4)c4ccccc34)c2)C1 (centres undefined) | 145 to 148
COc1ccc(-c2cccc3c2OC(COS(=O)(=O)c2ccc(C)cc2)C3)c(OC)c1 (centres undefined) | 120 to 123
Cc1nc(Nc2ccccc2)sc1-c1nc2ccccc2c(=O)n1-c1ccccc1Cl | 228 to 229
O=C1c2cccc3c(Br)ccc(c23)C(=O)N1O | 248 to 251
COc1ccc(COc2ccc(COc3ccc4c(c3)CCC(CN(C)C)C4)cc2)cc1 (centres undefined) | 106 to 111
CCCCCCCC[C@H](C)C(=O)Oc1ccc(C(=O)O)cc1 | 92.5 to 96.5
Cn1c(C(F)(F)F)cc(=O)n(Cc2cc(Cl)cc(Cl)c2Cl)c1=O | 128 to 130
FC(F)(F)c1cc(Cl)c2nc(N3CCN(c4ncccc4C(F)(F)F)CC3)[nH]c2c1 | 204
Cc1cc(N)c(C)c2c1OC(C)(C)C2=O | 124 to 126
O=C(c1ccccc1)c1cccnc1-c1nc(NCc2ccc(Cl)cc2)c2ccccc2n1 | 147 to 149
Nc1ccccc1SCc1noc(CSc2ccccc2N)n1 | 68
CCOC(=O)CC1CN=C(c2cc3cccc(N(C)S(=O)(=O)c4cccnc4)c3[nH]2)S1 (centres undefined) | 146 to 147
COC(=O)c1ccc(OCCNC(=O)C2Cc3ccccc3N2S(=O)(=O)c2ccc(-c3ccc(F)cc3Cl)cc2)nc1 (centres undefined) | 78 to 85
COc1cc2c(cc1OCc1ccccc1)CCN(Cc1cc(F)cc(F)c1)C2 | 116 to 117
CC(C)(O)C#Cc1cc(C(F)(F)F)cc(C(F)(F)F)c1 | 74.5 to 74.8
COC(=O)c1cc(N2CCC2)c(C(F)(F)F)cc1N | 80 to 86
CCOC(=O)C(CCC(=O)c1ccc(F)cc1)(NC(C)=O)C(=O)OCC | 73
CC(=O)NC1CC(C)(C)N(OC2CCCCC2)C(C)(C)C1 | 140 to 144
COCCCN1CC[C@@H](CNC(=O)c2cc(Cl)cc3c2OCCO3)[C@H](O)C1 | 110
Cn1c(COc2ccc(C=C3SC(=O)NC3=O)cc2)nc2cccnc21 | 279 to 281
Cc1cc(CCC(=O)OCC(CO)(COC(=O)CCc2cc(C)c(O)c(C(C)(C)C)c2)COC(=O)CCc2cc(C)c(O)c(C(C)(C)C)c2)cc(C(C)(C)C)c1O | 40 to 50
